Test: gradient 5% acetonitrile 3 min, to 50% in 2 min, to 85% in 15 min, held 3 min, 100 µL/min
Conditions: column: Zorbax Extend-C18 2.1 x 50 mm; eluents: water / acetonitrile, 0.1% formic acid
How it was run: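 Over 3 months, pure standards in mixtures of ~100 molecules were run by HPLC coupled to a quadrupole time-of-flight mass spectrometer in positive and negative ionization mode. The column was a Zorbax Extend-C18 (2.1 × 50 mm, 1.8 μm) at 100 μL/min, eluted with water and acetonitrile each holding 0.1% formic acid, with 40 μL dead and 900 μL dwell volumes. Retention time was determined from adduct peaks chosen by software and checked manually.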

| SMILES | RP-LC retention time |
| --- | --- |
| Cc1ccc(N2CC(C(=O)Nc3cc(-c4ccco4)no3)CC2=O)cc1 (configuration not stated) | 821 s |
| CN1CCC(N2CCN(C(=O)CCc3cn(C)nc3-c3ccc(F)cc3)CC2)CC1 | 559 s |
| Cc1ccc(-n2nc3c(=O)n(CCCC(=O)NCCCN4CCCC4=O)nc(C)c3c2C)cc1 | 683 s |
| Cc1cc(S(=O)(=O)Nc2cccnc2)c(Cl)cc1Cl | 714 s |
| Cc1cc(-c2nnc(-c3ccccc3)o2)c(C)n1CC(=O)NCc1cccs1 | 900 s |
| CC(=O)Nc1cccc2c(C(=O)NCCC(C)C)ccnc12 | 777 s |
| COCCN1C(=O)Cc2ccccc2C1C(=O)NCc1ccc(C)o1 (configuration not stated) | 637 s |
| Cc1c(C2CCN(C(=O)NCc3ccccc3)CC2)noc1N | 639 s |
| CC(=O)c1sc(NC(=O)c2c[nH]c3ccccc3c2=O)nc1C | 615 s |
| O=C(COc1cccc(Cl)c1)N1CCN(c2nc(CN3CCOCC3)cs2)CC1 | 721 s |
| CSc1ccc(-c2noc(Cn3c(=O)n(-c4ccc(Cl)cc4)c(=O)c4sccc43)n2)cc1 | 1100 s |
| COc1ccc(-c2nnc(SCC(=O)Nc3nccs3)o2)cc1 | 720 s |
| Cc1ccccc1-c1noc(C2CCCN2C(=O)Nc2cccc(F)c2)n1 (configuration not stated) | 1030 s |
| Cc1cc(-c2nnc(-c3ccco3)o2)c(C)n1CC(=O)NCc1cccc(Cl)c1 | 886 s |
| Cc1ccc2c(c1)C1CC(C)(O2)N(c2ccc(C(=O)O)cc2)C(=O)N1 (configuration not stated) | 709 s |
| CCc1csc(-c2ccc(N3CCN(C(=O)c4ccc(OC)c(F)c4)CC3)nc2)n1 | 936 s |
| CCc1nc(OCC(=O)NCc2ccc(F)cc2)c2ccccc2n1 | 753 s |
| CC1(C(=O)NCc2cccc(Cl)c2)Oc2cccnc2NC1=O (configuration not stated) | 723 s |
| COc1cc(C(=O)Nc2cccc(-c3cn4ccsc4n3)c2)c([N+](=O)[O-])cc1OC | 658 s |

| SMILES | RP-LC retention time |
| --- | --- |
| CCN1C(=O)C2(C(C#N)=C(N)Oc3n[nH]c(-c4ccccc4)c32)c2ccccc21 (configuration not stated) | 733 s |
| O=C(Nc1cccc(OCc2nnc(-c3ccccc3)o2)c1)c1cccnc1 | 750 s |
| Cc1ccc(C(=O)Nc2ccc(N3CCN(C4CCCC4)C3=O)nc2)cc1 | 888 s |
| CCNC(=O)N1CCCC(c2cccc(C(=O)NCc3cccc(C(F)(F)F)c3)c2)C1 (configuration not stated) | 900 s |
| O=C(N[C@H](Cc1ccccc1)C(=O)NCc1cscn1)c1ccccc1F | 734 s |
| CCC(C)NC(=O)C1CCN(S(=O)(=O)c2c(C)nn(-c3ccccc3)c2C)CC1 (configuration not stated) | 830 s |
| CCOC(=O)c1cccc(Nc2c(C(=O)N3CCCC(C)C3)cnc3nc(C)ccc23)c1 (configuration not stated) | 653 s |
| Fc1ccc(OCc2nc(-c3ccc(-c4csc(C5CC5)n4)cc3)no2)cc1 | 1330 s |
| CCNS(=O)(=O)c1cccnc1Nc1ccc(Cl)c(C)c1 | 1100 s |
| CCCNC(=O)N1CCCC1c1nc(-c2cccc(C)c2)no1 (configuration not stated) | 826 s |
| Nc1cccc2c1CN(C1CCC(=O)NC1=O)C2=O (configuration not stated) | 595 s |
| CCOC(=O)C(CC)n1nc2ccc(S(=O)(=O)N3CCC(C)CC3)cn2c1=O (configuration not stated) | 990 s |
| Cc1ccc(-n2nc(C)c3sc(N4CCCC(C(=O)NC(C)c5ccccc5)C4)nc32)cc1 (configuration not stated) | 1190 s |
| CN1c2ccccc2C(=O)NC12CCN(C(=O)NCc1cccc(F)c1)CC2 | 722 s |
| CCn1ncn2cc(S(=O)(=O)NCc3ccccc3)cc2c1=O | 800 s |
| CCCN1C(=O)c2cc(S(=O)(=O)Nc3ccc(F)c(C)c3)ccc2Oc2cccnc21 | 1100 s |
| COc1ccc(OC)c(CNC(=O)c2nc(N3CCOCC3)c3ccccc3n2)c1 | 686 s |
| COc1ccccc1OCCN1C(=O)C2(CCOCC2)CC1c1nnnn1C(C)(C)C (configuration not stated) | 796 s |
